Reference: patent US20180252700A1, “SCREENING AGENTS IN DRY EYE DISEASE” (Ora, Inc., priority 2016, published 2018)

Biological target: T1, TRPM8 (Homo sapiens, UniProt Q7Z2W7)
T1 construct: cold receptors express TRPM8 channels, which are sensitive to innocuous cooling; from tissue; host or cells: eye (corneal cold thermoreceptor nerve endings) of living human subjects
Experiment: Menthol vs placebo symptom response on 0-10 Cooling Scale, escalating menthol concentrations (Example 1)
Assay type: in vivo
Settings: for Is Menthol symptom response significantly higher than placebo? (TSS): Wilcox signed rank test, 95% confidence; for Duration of symptoms (furthest time point post-dose with symptom score higher than 0), mean: average of all concentrations
Protocol: 6 Healthy and 4 Dry Eye individuals participated in a 2-day internal pilot study. Each participant underwent randomized eye, contralateral, 15 μl pipette-instilled dosing of menthol and placebo (Sterile PBS, pH 7.2), across an escalating range of Menthol concentrations. The following dilutions (USP-grade L-Menthol in Sterile PBS, pH 7.2) were initially tested, in the following order (concentrations are w/v):
Post dose, a 0-10 Cooling Scale questionnaire, where 0 represents “No cooling sensation”, and 10 denotes “Maximum cooling sensation”, was asked at the following time points (OD, OS separate; OD represents your right eye and OS represents your left eye): Upon instillation, 30 seconds, 1 minute, 2 minutes, 3 minutes, and 4 minutes—post dose. At least 45 minutes was allowed between each successive dosing to allow for re-sensitization of TRPM8, as well as to allow any analgesic effects of μ-opioid activity to diminish. At the beginning of Visit 1, symptom questionnaires and Ocular Surface Disease Index (OSDI) were asked. After all concentrations of menthol had been tested, Fluorescein staining and Anesthetized Schirmer's test were performed (1 hour washout). The Schirmer test, first described in 1903 by Schirmer, is still the method most commonly used to evaluate aqueous tear production (Schirmer Graefes Arch Clin Exp Ophthalmol. 1903; 56:197-291,1903).
The primary parameter used was Total Symptom Sum, or TSS (sum of all time points), in active eye vs placebo eye. The secondary parameter used was “Upon instillation” Cooling score. FIG. 1 illustrates a frequency distribution of all symptom scores, based on a histogram of the data. […] As such, nonparametric statistical analysis was used to determine if differences exist between treatments (menthol vs placebo). In the following results, a Wilcox Signed Rank test was employed to test the null hypothesis that Menthol and Placebo elicit statistically similar symptom scores on the Cooling Scale. If TTest Stat<TCritical Value. If so, then the null hypothesis can be rejected with 95% confidence.
All concentrations tested are shown in Table 2, below, along with statistical significance indicated for either group according to a Wilcox Signed Rank Test (Total Symptom Sum, Menthol vs Placebo): […]

[1] = Dry Eye Population, Menthol 0.000050 (w/v)
[2] = Dry Eye Population, Menthol 0.000075 (w/v)
[3] = Dry Eye Population, Menthol 0.0001 (w/v)
[4] = Dry Eye Population, Menthol 0.001 (w/v)
[5] = Healthy Population, Menthol 0.001 (w/v)

T1 sequence (Q7Z2W7 whole entry): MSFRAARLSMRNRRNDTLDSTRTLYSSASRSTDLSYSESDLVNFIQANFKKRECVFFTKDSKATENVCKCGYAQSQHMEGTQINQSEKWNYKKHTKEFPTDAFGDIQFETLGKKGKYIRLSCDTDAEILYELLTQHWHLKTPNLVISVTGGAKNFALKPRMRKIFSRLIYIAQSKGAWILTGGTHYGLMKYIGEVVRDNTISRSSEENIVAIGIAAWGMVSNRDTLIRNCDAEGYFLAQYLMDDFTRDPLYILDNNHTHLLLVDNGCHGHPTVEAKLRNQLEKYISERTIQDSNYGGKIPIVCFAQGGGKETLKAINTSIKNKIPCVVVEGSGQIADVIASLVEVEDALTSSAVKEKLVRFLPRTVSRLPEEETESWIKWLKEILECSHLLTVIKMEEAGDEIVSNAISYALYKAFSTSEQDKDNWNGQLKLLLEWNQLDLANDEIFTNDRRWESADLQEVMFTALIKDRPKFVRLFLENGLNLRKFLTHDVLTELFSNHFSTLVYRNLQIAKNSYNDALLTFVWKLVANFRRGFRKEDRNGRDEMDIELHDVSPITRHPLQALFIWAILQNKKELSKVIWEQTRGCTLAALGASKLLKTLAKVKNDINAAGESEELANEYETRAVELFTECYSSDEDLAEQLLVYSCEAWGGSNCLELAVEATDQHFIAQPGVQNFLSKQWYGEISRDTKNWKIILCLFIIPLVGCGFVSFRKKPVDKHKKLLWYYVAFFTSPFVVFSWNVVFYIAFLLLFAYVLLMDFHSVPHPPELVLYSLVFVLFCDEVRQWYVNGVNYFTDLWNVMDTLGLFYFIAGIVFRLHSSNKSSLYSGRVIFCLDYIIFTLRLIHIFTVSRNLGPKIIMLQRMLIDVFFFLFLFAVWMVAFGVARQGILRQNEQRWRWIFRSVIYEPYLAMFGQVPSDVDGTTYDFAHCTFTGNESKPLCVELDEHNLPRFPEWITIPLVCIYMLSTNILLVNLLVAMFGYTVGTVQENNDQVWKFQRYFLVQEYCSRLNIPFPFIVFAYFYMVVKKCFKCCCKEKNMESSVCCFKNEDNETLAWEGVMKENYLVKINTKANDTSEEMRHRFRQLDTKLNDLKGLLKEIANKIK

CC(C)[C@@H]1CC[C@@H](C)C[C@H]1O [Menthol, L-Menthol]
% of population that had significantly higher menthol TSS than placebo TSS (Dry Eye Population, Menthol 0.000001 (w/v)): 0% | % of population that had significantly higher menthol TSS than placebo TSS (Dry Eye Population, Menthol 0.00001 (w/v)): 0% | % of population that had significantly higher menthol TSS than placebo TSS (Dry Eye Population, Menthol 0.000025 (w/v)): 0% | % of population that had significantly higher menthol TSS than placebo TSS [1]: 75% | Is Menthol symptom response significantly higher than placebo? (TSS) [1]: YES | % of population that had significantly higher menthol TSS than placebo TSS [2]: 25% | Is Menthol symptom response significantly higher than placebo? (TSS) [2]: YES | % of population that had significantly higher menthol TSS than placebo TSS [3]: 25% | Is Menthol symptom response significantly higher than placebo? (TSS) [3]: YES | % of population that had significantly higher menthol TSS than placebo TSS [4]: 75% | Is Menthol symptom response significantly higher than placebo? (TSS) [4]: YES | Duration of symptoms (furthest time point post-dose with symptom score higher than 0), mean (Dry Eye, p=0.004 vs Normal): 2.58 min | % of population that had significantly higher menthol TSS than placebo TSS (Healthy Population, Menthol 0.000001 (w/v)): 0% | % of population that had significantly higher menthol TSS than placebo TSS (Healthy Population, Menthol 0.00001 (w/v)): 0% | % of population that had significantly higher menthol TSS than placebo TSS (Healthy Population, Menthol 0.000025 (w/v)): 0% | % of population that had significantly higher menthol TSS than placebo TSS (Healthy Population, Menthol 0.000050 (w/v)): 16% | % of population that had significantly higher menthol TSS than placebo TSS (Healthy Population, Menthol 0.000075 (w/v)): 16% | % of population that had significantly higher menthol TSS than placebo TSS (Healthy Population, Menthol 0.0001 (w/v)): 0% | % of population that had significantly higher menthol TSS than placebo TSS [5]: 50% | Is Menthol symptom response significantly higher than placebo? (TSS) [5]: YES | Correlation score between Menthol TSS and 4-Symptom Questionnaire (Menthol 0.001%): 0.64 | Correlation score between Menthol TSS and Fluorescein Staining (Corneal) (Menthol 0.001%): 0.50 | Correlation score between Menthol TSS and OSDI (Menthol 0.001%): 0.79 | Menthol TSS, Dry Eye vs Normal (Menthol 0.001%): significantly higher than Normal | Duration of symptoms (furthest time point post-dose with symptom score higher than 0), mean (Normal): 1.57 min | "Upon Instillation" menthol symptom response, Normal vs Dry Eye (any concentrations tested, FIG. 3): No significant differences | Symptom response to menthol (TSS), dry eye subjects vs normal (concentrations of 0.0001% and up, FIG. 2): significantly higher in dry eye subjects | Lower concentration at which Dry Eye population can differentiate Menthol from Placebo compared with Normal (from Table 2): 50 fold
